Laboratory results: US12454529B2, “Piperazine cyclic ureas” (SIRONAX LTD., priority 2020, dated 2025)

These molecules were tested on HT-29 cells (assay: HT-29 cell necrosis/necroptosis inhibition (TNF-α + SMAC mimetic + zVAD-FMK; CellTiter-Glo cell viability)). Conditions: Homo sapiens, HT-29, 20 h, read-out: EC50 (Cell activity; Necrosis/Necroptosis Inhibitory Activity, Compounds 1-142).
Type: cell-based
In short: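 Necroptosis was driven by TNF-α 10 ng/ml plus SMAC mimetic 6 μM and zVAD-FMK 10 μM in serum-free medium, with compounds as a 10-point threefold titration. After 20 h at 37 °C, ATP-based luminescence was read; EC50 values are geometric means of duplicate curves.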

Compound	EC50
Cc1nnnn1-c1ccnc(N2CCN(C(=O)N3N=CC[C@H]3c3cncc(F)c3)CC2)n1 [Compound 26, (S)-(5-(5-fluoropyridin-3-yl)-4,5-dihydro-1H-pyrazol-1-yl)(4-(4-(5-methyl-1H-tetrazol-1-yl)pyrimidin-2-yl)piperazin-1-yl)methanone]	0.1 to 100 nM

Same assay, conditions: Homo sapiens; HT-29 cells, TNF-α 10 ng/ml + SMAC mimetic 6 μM + zVAD-FMK 10 μM, 20 hours; geometric mean, 10 points in duplicate; read-out: EC50 (Cell activity; Necrosis/Necroptosis Inhibitory Activity, Compounds 1-142)

Compound	EC50
Cc1nnnn1-c1nc(N2CCN(C(=O)N3N=CC[C@H]3c3cc(F)cc(F)c3)CC2)ncc1F [Compound 23, (S)-(5-(3,5-difluorophenyl)-4,5-dihydro-1H-pyrazol-1-yl)(4-(5-fluoro-4-(5-methyl-1H-tetrazol-1-yl)pyrimidin-2-yl)piperazin-1-yl)methanone]	0.1 to 100 nM
O=C(N1CCN(c2ccnc(-c3ccc[nH]3)n2)CC1)N1N=CC[C@H]1c1cc(F)cc(F)c1 [Compound 5, (S)-(4-(2-(1H-pyrrol-2-yl)pyrimidin-4-yl)piperazin-1-yl)(5-(3,5-difluorophenyl)-4,5-dihydro-1H-pyrazol-1-yl)methanone]	0.1 to 100 nM
CCOC(=O)c1nc(C)n(-c2nc(N3CCN(C(=O)N4N=CC[C@H]4c4cc(F)cc(C#N)c4)CC3)ncc2F)n1 [Compound 129, ethyl (S)-1-(2-(4-(5-(3-cyano-5-fluorophenyl)-4,5-dihydro-1H-pyrazole-1-carbonyl)piperazin-1-yl)-5-fluoropyrimidin-4-yl)-5-methyl-1H-1,2,4-triazole-3-carboxylate]	0.1 to 100 nM
Cc1cc(-c2cc(N3CCN(C(=O)N4N=CC[C@H]4c4cc(F)cc(F)c4)CC3)ncc2F)n(C)n1 [Compound 116, (S)-(5-(3,5-difluorophenyl)-4,5-dihydro-1H-pyrazol-1-yl)(4-(4-(1,3-dimethyl-1H-pyrazol-5-yl)-5-fluoropyridin-2-yl)piperazin-1-yl)methanone]	0.1 to 100 nM
Cc1nn(CC(N)=O)c(C)c1-c1nc(N2CCN(C(=O)N3N=CC[C@H]3c3cc(F)cc(F)c3)CC2)ncc1F [Compound 119, (S)-2-(4-(2-(4-(5-(3,5-difluorophenyl)-4,5-dihydro-1H-pyrazole-1-carbonyl)piperazin-1-yl)-5-fluoropyrimidin-4-yl)-3,5-dimethyl-1H-pyrazol-1-yl)acetamide]	0.1 to 100 nM
O=C(N1CCN(c2ncc(F)c(-n3cnc(Cl)n3)n2)CC1)N1N=CC[C@H]1c1cc(F)cc(F)c1 [Compound 24, (S)-(4-(4-(3-chloro-1H-1,2,4-triazol-1-yl)-5-fluoropyrimidin-2-yl)piperazin-1-yl)(5-(3,5-difluorophenyl)-4,5-dihydro-1H-pyrazol-1-yl)methanone]	0.1 to 100 nM
Cc1nn(C)c(C)c1-c1nc(N2CCN(C(=O)N3N=CC[C@H]3c3cc(F)cc(F)c3)CC2)ncc1F [Compound 58, (S)-(5-(3,5-difluorophenyl)-4,5-dihydro-1H-pyrazol-1-yl)(4-(5-fluoro-4-(1,3,5-trimethyl-1H-pyrazol-4-yl)pyrimidin-2-yl)piperazin-1-yl)methanone]	0.1 to 100 nM
N#Cc1cc(F)cc([C@@H]2CC=NN2C(=O)N2CCN(c3ncc(F)c(-c4cc(O)nc(O)n4)n3)CC2)c1 [Compound 50, (S)-3-fluoro-5-(1-(4-(5-fluoro-2′,6′-dihydroxy-[4,4′-bipyrimidin]-2-yl)piperazine-1-carbonyl)-4,5-dihydro-1H-pyrazol-5-yl)benzonitrile]	0.1 to 100 nM
Cc1nn(CC2CCOCC2)c(C)c1-c1nc(N2CCN(C(=O)N3N=CC[C@H]3c3cc(F)cc(F)c3)CC2)ncc1F [Compound 122, (S)-(5-(3,5-difluorophenyl)-4,5-dihydro-1H-pyrazol-1-yl)(4-(4-(3,5-dimethyl-1-((tetrahydro-2H-pyran-4-yl)methyl)-1H-pyrazol-4-yl)-5-fluoropyrimidin-2-yl)piperazin-1-yl)methanone]	0.1 to 100 nM
O=C(N1CCN(c2ncc(F)c(-c3n[nH]nc3I)n2)CC1)N1N=CC[C@H]1c1cc(F)cc(F)c1 [Compound 20, (S)-(5-(3,5-difluorophenyl)-4,5-dihydro-1H-pyrazol-1-yl)(4-(5-fluoro-4-(5-iodo-1H-1,2,3-triazol-4-yl)pyrimidin-2-yl)piperazin-1-yl)methanone]	0.1 to 100 nM

Same assay, conditions: Homo sapiens; HT-29 cells, TNF-α 10 ng/ml + SMAC mimetic 6 μM + zVAD-FMK 10 μM, 20 hours; geometric mean, 10 points in duplicate; read-out: EC50 (Cell activity; Necrosis/Necroptosis Inhibitory Activity, Compounds 143-323)

Compound	EC50
Cc1nc(C)n(-c2nc(N3CCN(C(=O)N4N=CCC4c4cnc(C)s4)CC3)ncc2Cl)n1 (centres unmarked) [Compound 223, (4-(5-chloro-4-(3,5-dimethyl-1H-1,2,4-triazol-1-yl)pyrimidin-2-yl)piperazin-1-yl)(5-(2-methylthiazol-5-yl)-4,5-dihydro-1H-pyrazol-1-yl)methanone]	0.1 to 100 nM
Cc1nc(C)n(-c2nc(N3CCN(C(=O)N4N=CC[C@H]4c4cc(F)cc(C#N)c4)CC3)ncc2Cl)n1 [Compound 260, (S)-3-(1-(4-(5-chloro-4-(3,5-dimethyl-1H-1,2,4-triazol-1-yl)pyrimidin-2-yl)piperazine-1-carbonyl)-4,5-dihydro-1H-pyrazol-5-yl)-5-fluorobenzonitrile]	0.1 to 100 nM
Cc1nc(C2CC=NN2C(=O)N2CCN(c3cc(-c4c(C)cnn4C)ncc3F)CC2)cs1 (centres unmarked) [Compound 156, (4-(2-(1,4-dimethyl-1H-pyrazol-5-yl)-5-fluoropyridin-4-yl)piperazin-1-yl)(5-(2-methylthiazol-4-yl)-4,5-dihydro-1H-pyrazol-1-yl)methanone]	100 to 1000 nM
Cc1nn(-c2nc(N3CCN(C(=O)N4N=CC[C@H]4c4cc(F)cc(C#N)c4)CC3)ncc2F)c(C)c1[N+](=O)[O-] [Compound 191, (S)-3-(1-(4-(4-(3,5-dimethyl-4-nitro-1H-pyrazol-1-yl)-5-fluoropyrimidin-2-yl)piperazine-1-carbonyl)-4,5-dihydro-1H-pyrazol-5-yl)-5-fluorobenzonitrile]	0.1 to 100 nM
Cc1nc(C)n(-c2nc(N3CCN(C(=O)N4N=CCC4c4nccs4)CC3)ncc2F)n1 (centres unmarked) [Compound 217, (4-(4-(3,5-dimethyl-1H-1,2,4-triazol-1-yl)-5-fluoropyrimidin-2-yl)piperazin-1-yl)(5-(thiazol-2-yl)-4,5-dihydro-1H-pyrazol-1-yl)methanone]	0.1 to 100 nM
N#Cc1cc(F)cc([C@@H]2CC=NN2C(=O)N2CCN(c3ncc(F)c(-n4nccc4C(F)(F)F)n3)CC2)c1 [Compound 304, (S)-3-fluoro-5-(1-(4-(5-fluoro-4-(5-(trifluoromethyl)-1H-pyrazol-1-yl)pyrimidin-2-yl)piperazine-1-carbonyl)-4,5-dihydro-1H-pyrazol-5-yl)benzonitrile]	0.1 to 100 nM
Cc1csc(C2CC=NN2C(=O)N2CCN(c3cc(-c4c(C)cnn4C)ncc3F)CC2)n1 (centres unmarked) [Compound 157, (4-(2-(1,4-dimethyl-1H-pyrazol-5-yl)-5-fluoropyridin-4-yl)piperazin-1-yl)(5-(4-methylthiazol-2-yl)-4,5-dihydro-1H-pyrazol-1-yl)methanone]	100 to 1000 nM
Cc1nc(C)n(-c2nc(N3CCN(C(=O)N4N=CCC4c4cc(Br)cc(F)c4F)CC3)ncc2F)n1 (centres unmarked) [Compound 237, (5-(5-bromo-2,3-difluorophenyl)-4,5-dihydro-1H-pyrazol-1-yl)(4-(4-(3,5-dimethyl-1H-1,2,4-triazol-1-yl)-5-fluoropyrimidin-2-yl)piperazin-1-yl)methanone]	0.1 to 100 nM
Cc1cnn(C)c1-c1ccc(F)c(N2CCN(C(=O)N3N=CCC3c3cncs3)CC2)n1 (centres unmarked) [Compound 296, (4-(6-(1,4-dimethyl-1H-pyrazol-5-yl)-3-fluoropyridin-2-yl)piperazinyl)(5-(thiazol-5-yl)-4,5-dihydro-1H-pyrazol-1-yl)methanone]	0.1 to 100 nM
O=C(N1CCN(c2ncc(F)c(-n3nccc3C(F)(F)F)n2)CC1)N1N=CC[C@H]1c1cc(F)cc(F)c1 [Compound 315, (S)-(5-(3,5-difluorophenyl)-4,5-dihydro-1H-pyrazol-1-yl)(4-(5-fluoro-4-(5-(trifluoromethyl)-1H-pyrazol-1-yl)pyrimidin-2-yl)piperazin-1-yl)methanone]	0.1 to 100 nM
Cc1cnn(C)c1-c1cc(N2CCN(C(=O)N3N=CC[C@H]3c3cc(F)cc(F)c3)CC2)c(F)cn1 [Compound 149, (S)-(5-(3,5-difluorophenyl)-4,5-dihydro-1H-pyrazol-1-yl)(4-(2-(1,4-dimethyl-1H-pyrazol-5-yl)-5-fluoropyridin-4-yl)piperazin-1-yl)methanone]	0.1 to 100 nM
Cc1[nH]nc(CO)c1-c1nc(N2CCN(C(=O)N3N=CC[C@H]3c3cc(F)cc(C#N)c3)CC2)ncc1F [Compound 163, (S)-3-fluoro-5-(1-(4-(5-fluoro-4-(3-(hydroxymethyl)-5-methyl-1H-pyrazol-4-yl)pyrimidin-2-yl)piperazine-1-carbonyl)-4,5-dihydro-1H-pyrazol-5-yl)benzonitrile]	0.1 to 100 nM
CCn1ncnc1-c1nc(N2CCN(C(=O)N3N=CC[C@H]3c3cc(F)cc(C#N)c3)CC2)ncc1F [Compound 167, (S)-3-(1-(4-(4-(1-ethyl-1H-1,2,4-triazol-5-yl)-5-fluoropyrimidin-2-yl)piperazine-1-carbonyl)-4,5-dihydro-1H-pyrazol-5-yl)-5-fluorobenzonitrile]	0.1 to 100 nM
Cc1nc(C)n(-c2nc(N3CCN(C(=O)N4N=CCC4c4coc(C)n4)CC3)ncc2F)n1 (centres unmarked) [Compound 211, (4-(4-(3,5-dimethyl-1H-1,2,4-triazol-1-yl)-5-fluoropyrimidin-2-yl)piperazin-1-yl)(5-(2-methyloxazol-4-yl)-4,5-dihydro-1H-pyrazol-1-yl)methanone]	0.1 to 100 nM
Cc1nc(CO)nn1-c1nc(N2CCN(C(=O)N3N=CC[C@H]3c3cc(F)cc(C#N)c3)CC2)ncc1F [Compound 144, (S)-3-fluoro-5-(1-(4-(5-fluoro-4-(3-(hydroxymethyl)-5-methyl-1H-1,2,4-triazol-1-yl)pyrimidin-2-yl)piperazine-1-carbonyl)-4,5-dihydro-1H-pyrazol-5-yl)benzonitrile]	0.1 to 100 nM
